{"source": "patent US5952310A", "about": "“Glycopeptide hexapeptides” (priority 1998, dated 1999)", "key": {"[1]": {"tested_on": "Staphylococcus epidermidis 270"}, "[2]": {"tested_on": "Staphylococcus haemolyticus 105", "assay": "MIC, standard broth micro-dilution assay, SH 105", "format": "cell-based"}, "[3]": {"tested_on": "Streptococcus pyogenes C203", "assay": "MIC, standard broth micro-dilution assay, SPY C203", "format": "cell-based"}, "[4]": {"tested_on": "Enterococcus faecium and faecalis (RESISTANT)", "conditions": "geometric mean of 4-6 isolates", "protocol": "(§1) The minimal inhibitory concentrations (MICs) were determined using a standard broth micro-dilution assay."}, "[5]": {"tested_on": "Staphylococcus aureus 446", "protocol": "as §1"}, "[6]": {"tested_on": "Enterococcus faecium and faecalis (SENSITIVE)", "assay": "MIC, standard broth micro-dilution assay, sensitive enterococci", "format": "cell-based", "conditions": "geometric mean of 4-6 isolates"}, "[7]": {"tested_on": "Staphylococcus aureus 447", "assay": "MIC, standard broth micro-dilution assay, SA447", "format": "cell-based"}, "[8]": {"tested_on": "Staphylococcus aureus 489", "assay": "MIC, standard broth micro-dilution assay, SA489", "format": "cell-based"}, "[9]": {"tested_on": "Staphylococcus haemolyticus 415", "assay": "MIC, standard broth micro-dilution assay, SH 415", "format": "cell-based"}, "[10]": {"tested_on": "Streptococcus pneumoniae P1", "protocol": "as §1"}}}
{"smiles": "CC1OC(OC2c3ccc(c(Cl)c3)Oc3cc4cc(c3OC3OC(CO)C(O)C(O)C3OC3CC(C)(N)C(O)C(C)O3)Oc3ccc(cc3Cl)C(O)C(N)C(=O)NC(CC(N)=O)C(=O)NC4C(=O)NC3C(=O)NC2C(=O)NC(C(=O)O)c2cc(O)cc(O)c2-c2cc3ccc2O)CC(C)(N)C1O", "note": "(stereo not drawn) [Example 1, DESLEUCYL-A82846B]", "values": [{"measurement": "Minimal Inhibitory Concentration (MIC) SE 270", "setting": "[1]", "value": 64}, {"measurement": "Minimal Inhibitory Concentration (MIC) SH 105", "setting": "[2]", "value": "> 64"}, {"measurement": "Minimal Inhibitory Concentration (MIC) SPY C203", "setting": "[3]", "value": 4}, {"measurement": "Minimal Inhibitory Concentration (MIC) Resistant", "setting": "[4]", "value": "> 128"}, {"measurement": "Minimal Inhibitory Concentration (MIC) SA 446", "setting": "[5]", "value": 64}, {"measurement": "Minimal Inhibitory Concentration (MIC) Sensitive", "setting": "[6]", "value": "> 128"}, {"measurement": "Minimal Inhibitory Concentration (MIC) SA 447", "setting": "[7]", "value": 64}, {"measurement": "Minimal Inhibitory Concentration (MIC) SA 489", "setting": "[8]", "value": 32}, {"measurement": "Minimal Inhibitory Concentration (MIC) SH 415", "setting": "[9]", "value": "> 64"}]}
{"smiles": "CC1OC(OC2c3ccc(c(Cl)c3)Oc3cc4cc(c3OC3OC(CO)C(O)C(O)C3OC3CC(C)(NCc5ccc(Cl)cc5)C(O)C(C)O3)Oc3ccc(cc3Cl)C(O)C(N)C(=O)NC(CC(N)=O)C(=O)NC4C(=O)NC3C(=O)NC2C(=O)NC(C(=O)O)c2cc(O)cc(O)c2-c2cc3ccc2O)CC(C)(N)C1O", "note": "(stereo not drawn) [Example 2, N^DISACC -(p-CHLOROBENZYL)-DESLEUCYL-A82846B]", "values": [{"measurement": "Minimal Inhibitory Concentration (MIC) SE 270", "setting": "[1]", "value": 2}, {"measurement": "Minimal Inhibitory Concentration (MIC) SH 105", "setting": "[2]", "value": 2}, {"measurement": "Minimal Inhibitory Concentration (MIC) SPY C203", "setting": "[3]", "value": "≤ 0.06"}, {"measurement": "Minimal Inhibitory Concentration (MIC) Resistant", "setting": "[4]", "value": "> 81"}, {"measurement": "Minimal Inhibitory Concentration (MIC) SA 446", "setting": "[5]", "value": 4}, {"measurement": "Minimal Inhibitory Concentration (MIC) Sensitive", "setting": "[6]", "value": 5.2}, {"measurement": "Minimal Inhibitory Concentration (MIC) SA 447", "setting": "[7]", "value": 2}, {"measurement": "Minimal Inhibitory Concentration (MIC) SA 489", "setting": "[8]", "value": 0.5}, {"measurement": "Minimal Inhibitory Concentration (MIC) SH 415", "setting": "[9]", "value": 4}]}
{"smiles": "CC1OC(OC2c3ccc(c(Cl)c3)Oc3cc4cc(c3OC3OC(CO)C(O)C(O)C3OC3CC(C)(NCc5ccc(Oc6ccccc6)cc5)C(O)C(C)O3)Oc3ccc(cc3Cl)C(O)C(N)C(=O)NC(CC(N)=O)C(=O)NC4C(=O)NC3C(=O)NC2C(=O)NC(C(=O)O)c2cc(O)cc(O)c2-c2cc3ccc2O)CC(C)(N)C1O", "note": "(stereo not drawn) [Example 3, N^DISACC -(p-PHENOXYBENZYL)-DESLEUCYL-A82846B]", "values": [{"measurement": "Minimal Inhibitory Concentration (MIC) SE 270", "setting": "[1]", "value": 0.5}, {"measurement": "Minimal Inhibitory Concentration (MIC) SH 105", "setting": "[2]", "value": 2}, {"measurement": "Minimal Inhibitory Concentration (MIC) SPY C203", "setting": "[3]", "value": "≤ 0.06"}, {"measurement": "Minimal Inhibitory Concentration (MIC) Resistant", "setting": "[4]", "value": 45}, {"measurement": "Minimal Inhibitory Concentration (MIC) SA 446", "setting": "[5]", "value": 2}, {"measurement": "Minimal Inhibitory Concentration (MIC) SPN P1", "setting": "[10]", "value": "≤ .06"}, {"measurement": "Minimal Inhibitory Concentration (MIC) Sensitive", "setting": "[6]", "value": 14}, {"measurement": "Minimal Inhibitory Concentration (MIC) SA 447", "setting": "[7]", "value": 1}, {"measurement": "Minimal Inhibitory Concentration (MIC) SA 489", "setting": "[8]", "value": 1}, {"measurement": "Minimal Inhibitory Concentration (MIC) SH 415", "setting": "[9]", "value": 1}]}
{"smiles": "CC1OC(OC2c3ccc(c(Cl)c3)Oc3cc4cc(c3OC3OC(CO)C(O)C(O)C3OC3CC(C)(NCc5ccc(-c6ccccc6)cc5)C(O)C(C)O3)Oc3ccc(cc3Cl)C(O)C(N)C(=O)NC(CC(N)=O)C(=O)NC4C(=O)NC3C(=O)NC2C(=O)NC(C(=O)O)c2cc(O)cc(O)c2-c2cc3ccc2O)CC(C)(N)C1O", "note": "(stereo not drawn) [Example 4, N^DISACC -(p-PHENYLBENZYL)-DESLEUCYL-A82846B]", "values": [{"measurement": "Minimal Inhibitory Concentration (MIC) SE 270", "setting": "[1]", "value": 1}, {"measurement": "Minimal Inhibitory Concentration (MIC) SH 105", "setting": "[2]", "value": 1}, {"measurement": "Minimal Inhibitory Concentration (MIC) SPY C203", "setting": "[3]", "value": "≤ 0.06"}, {"measurement": "Minimal Inhibitory Concentration (MIC) Resistant", "setting": "[4]", "value": 16}, {"measurement": "Minimal Inhibitory Concentration (MIC) SA 446", "setting": "[5]", "value": 2}, {"measurement": "Minimal Inhibitory Concentration (MIC) SPN P1", "setting": "[10]", "value": 0.125}, {"measurement": "Minimal Inhibitory Concentration (MIC) Sensitive", "setting": "[6]", "value": 3.4}, {"measurement": "Minimal Inhibitory Concentration (MIC) SA 447", "setting": "[7]", "value": 1}, {"measurement": "Minimal Inhibitory Concentration (MIC) SA 489", "setting": "[8]", "value": 0.25}, {"measurement": "Minimal Inhibitory Concentration (MIC) SH 415", "setting": "[9]", "value": 1}]}
{"smiles": "CCCCc1ccc(CNC2(C)CC(OC3C(Oc4c5cc6cc4Oc4ccc(cc4Cl)C(OC4CC(C)(N)C(O)C(C)O4)C4NC(=O)C(NC(=O)C6NC(=O)C(CC(N)=O)NC(=O)C(N)C(O)c6ccc(c(Cl)c6)O5)c5ccc(O)c(c5)-c5c(O)cc(O)cc5C(C(=O)O)NC4=O)OC(CO)C(O)C3O)OC(C)C2O)cc1", "note": "(stereo not drawn) [Example 5, N^DISACC -(p-n-BUTYLBENZYL)-DESLEUCYL-A82846B]", "values": [{"measurement": "Minimal Inhibitory Concentration (MIC) SE 270", "setting": "[1]", "value": 1}, {"measurement": "Minimal Inhibitory Concentration (MIC) SH 105", "setting": "[2]", "value": 1}, {"measurement": "Minimal Inhibitory Concentration (MIC) SPY C203", "setting": "[3]", "value": 0.125}, {"measurement": "Minimal Inhibitory Concentration (MIC) Resistant", "setting": "[4]", "value": 108}, {"measurement": "Minimal Inhibitory Concentration (MIC) SA 446", "setting": "[5]", "value": 1}, {"measurement": "Minimal Inhibitory Concentration (MIC) SPN P1", "setting": "[10]", "value": 0.25}, {"measurement": "Minimal Inhibitory Concentration (MIC) Sensitive", "setting": "[6]", "value": 9.2}, {"measurement": "Minimal Inhibitory Concentration (MIC) SA 447", "setting": "[7]", "value": 2}, {"measurement": "Minimal Inhibitory Concentration (MIC) SA 489", "setting": "[8]", "value": 1}, {"measurement": "Minimal Inhibitory Concentration (MIC) SH 415", "setting": "[9]", "value": 2}]}
{"smiles": "CC1OC(OC2c3ccc(c(Cl)c3)Oc3cc4cc(c3OC3OC(CO)C(O)C(O)C3OC3CC(C)(NCc5ccc(-c6ccc(Cl)cc6)cc5)C(O)C(C)O3)Oc3ccc(cc3Cl)C(O)C(N)C(=O)NC(CC(N)=O)C(=O)NC4C(=O)NC3C(=O)NC2C(=O)NC(C(=O)O)c2cc(O)cc(O)c2-c2cc3ccc2O)CC(C)(N)C1O", "note": "(stereo not drawn) [Example 6, N^DISACC -(p-(p-CHLOROPHENYL)-BENZYL)DESLEUCYL-A82846B]", "values": [{"measurement": "Minimal Inhibitory Concentration (MIC) SE 270", "setting": "[1]", "value": 0.5}, {"measurement": "Minimal Inhibitory Concentration (MIC) SH 105", "setting": "[2]", "value": 0.5}, {"measurement": "Minimal Inhibitory Concentration (MIC) SPY C203", "setting": "[3]", "value": "≤ .06"}, {"measurement": "Minimal Inhibitory Concentration (MIC) Resistant", "setting": "[4]", "value": 6.7}, {"measurement": "Minimal Inhibitory Concentration (MIC) SA 446", "setting": "[5]", "value": 2}, {"measurement": "Minimal Inhibitory Concentration (MIC) SPN P1", "setting": "[10]", "value": 0.25}, {"measurement": "Minimal Inhibitory Concentration (MIC) Sensitive", "setting": "[6]", "value": 2.6}, {"measurement": "Minimal Inhibitory Concentration (MIC) SA 447", "setting": "[7]", "value": 1}, {"measurement": "Minimal Inhibitory Concentration (MIC) SA 489", "setting": "[8]", "value": 2}, {"measurement": "Minimal Inhibitory Concentration (MIC) SH 415", "setting": "[9]", "value": 1}]}
{"smiles": "CC1OC(OC2c3ccc(c(Cl)c3)Oc3cc4cc(c3OC3OC(CO)C(O)C(O)C3O)Oc3ccc(cc3Cl)C(O)C(N)C(=O)NC(CC(N)=O)C(=O)NC4C(=O)NC3C(=O)NC2C(=O)NC(C(=O)O)c2cc(O)cc(O)c2-c2cc3ccc2O)CC(C)(N)C1O", "note": "(stereo not drawn) [Example 7, N^DISACC -DES-EPIVANCOAMINYL-DESLEUCYL-A82846B]", "values": [{"measurement": "Minimal Inhibitory Concentration (MIC) SE 270", "setting": "[1]", "value": "> 64"}, {"measurement": "Minimal Inhibitory Concentration (MIC) SH 105", "setting": "[2]", "value": 64}, {"measurement": "Minimal Inhibitory Concentration (MIC) SPY C203", "setting": "[3]", "value": 4}, {"measurement": "Minimal Inhibitory Concentration (MIC) Resistant", "setting": "[4]", "value": "> 128"}, {"measurement": "Minimal Inhibitory Concentration (MIC) SA 446", "setting": "[5]", "value": 32}, {"measurement": "Minimal Inhibitory Concentration (MIC) SPN P1", "setting": "[10]", "value": 2}, {"measurement": "Minimal Inhibitory Concentration (MIC) Sensitive", "setting": "[6]", "value": 56}, {"measurement": "Minimal Inhibitory Concentration (MIC) SA 447", "setting": "[7]", "value": 64}, {"measurement": "Minimal Inhibitory Concentration (MIC) SA 489", "setting": "[8]", "value": 8}, {"measurement": "Minimal Inhibitory Concentration (MIC) SH 415", "setting": "[9]", "value": "> 64"}]}
{"smiles": "CC1OC(OC2c3ccc(c(Cl)c3)Oc3cc4cc(c3OC3OC(CO)C(O)C(O)C3OC3CC(C)(NCCCCCCCCc5ccccc5)C(O)C(C)O3)Oc3ccc(cc3Cl)C(O)C(N)C(=O)NC(CC(N)=O)C(=O)NC4C(=O)NC3C(=O)NC2C(=O)NC(C(=O)O)c2cc(O)cc(O)c2-c2cc3ccc2O)CC(C)(N)C1O", "note": "(stereo not drawn) [Example 8, N^DISACC -(8-PHENYL-n-OCTYL)DESLEUCYL-A82846B]", "values": [{"measurement": "Minimal Inhibitory Concentration (MIC) SE 270", "setting": "[1]", "value": 1}, {"measurement": "Minimal Inhibitory Concentration (MIC) SH 105", "setting": "[2]", "value": 0.25}, {"measurement": "Minimal Inhibitory Concentration (MIC) SPY C203", "setting": "[3]", "value": 0.125}, {"measurement": "Minimal Inhibitory Concentration (MIC) Resistant", "setting": "[4]", "value": 5.7}, {"measurement": "Minimal Inhibitory Concentration (MIC) SA 446", "setting": "[5]", "value": 4}, {"measurement": "Minimal Inhibitory Concentration (MIC) SPN P1", "setting": "[10]", "value": 0.125}, {"measurement": "Minimal Inhibitory Concentration (MIC) Sensitive", "setting": "[6]", "value": 0.76}, {"measurement": "Minimal Inhibitory Concentration (MIC) SA 447", "setting": "[7]", "value": 2}, {"measurement": "Minimal Inhibitory Concentration (MIC) SA 489", "setting": "[8]", "value": 1}, {"measurement": "Minimal Inhibitory Concentration (MIC) SH 415", "setting": "[9]", "value": 2}]}
